Measured values as given in patent US10422787B2, “System and method for single molecule detection” (ARIZONA BOARD OF REGENTS on behalf of ARIZONA STATE …, priority 2015, dated 2019).

Assays:
[1] = system: cyclic RGD peptide; assay: STM break-junction measurement, Pd probe and substrate functionalized with cyclic RGD peptide; assay type: binding; details: for event frequency, of all retractions: 10 nM protein, Vt=0.2V
Method: A Pd wire probe, etched to a sharp point and insulated to within a few hundred nm of its apex was used in an Agilent PicoSPM together with a Pd-coated substrate as described elsewhere. […] Probes and substrates were functionalized with cyclic RGD peptide (inset FIG. 14B) as described in Methods. Measurements were carried out in 1 mM phosphate buffer (pH=7.4) with the potential of the substrate controlled at a voltage Vr with respect to an Ag/AgCl reference. […] Integrin itself is electrochemically-inert, but the Pd surface has a rich electrochemistry. Cyclic voltammetry of a Pd surface functionalized with cyclic RGD peptide is shown in FIG. 14B, where a prominent cathodic peak (“HA”) is associated with hydrogen adsorption. […] In order to avoid both this cathodic peak and the onset of Pd oxidation at positive potentials, both electrodes were kept at potentials between 0 and 0.5V vs Ag/AgCl. The STM gap was set to an initial current of 4 pA ([…] conductance at Vt=0.2V, corresponding to a distance, Z0, of about 2 nm) and the probe was then slowly (0.17 nm/s) retracted. The tunnel current decayed rapidly (˜0.2 nm decay length—inset in FIG. 14E) in buffer alone. […] Many current points for αvβ3, exceed 0.1 nA (i.e., conductances >0.5 nS) at distances Z0+ΔZ>3 nm (FIG. 15A). Clearly these currents cannot arise from a tunneling process with β˜0.87 Å^−1 for which G0·e^−βx yields values smaller than 10^−16 S.
Table 1 summarizes the frequency with which these large current pulses are observed in STM measurements, showing also the effect of increasing bias. Large current events are barely seen below 0.1V, their frequency rising with increasing bias above this threshold. The experiments were repeated without a reference electrode, finding essentially identical results over the range of 0.1 to 0.5V (Table 1) presumably because the large-area substrate used in the STM experiments serves to stabilize surface potential somewhat.
The fraction in parenthesis corresponds to events that overflowed the current limit of the amplifier (11 nA). 0.5V bias approaches the potential for surface oxide formation of the Pd, but no significant oxidation currents were observed.
Functionalizing STM probes and substrates: The STM probes were etched from a 0.25 mm Pd wire (California Fine Wires) by an AC electrochemical etching method, and then insulated with high-density polyethylene, leaving an open apex of a few tens of nanometers in diameter. Before use, the probes were tested in 1 mM phosphate buffer (pH=7.4) at 0.5 V bias to ensure that the leakage current was <1 pA. For functionalization, the probe was gently cleaned using ethanol and water, respectively, and then dried with nitrogen flow. The probe was immersed in a 0.5 mg/mL peptide solution for ˜20 h. After that, the probe was taken out, rinsed with water, dried with nitrogen gas, and used immediately. Palladium substrates were prepared by depositing a 100 nm palladium film onto a 10 nm titanium adhesion layer coated onto a 750 μm thick silicon wafer using an electron-beam evaporator (Lesker PVD 75). The substrate was annealed with a hydrogen flame immediately before being functionalized by the same method as that for probe. Fourier transform infrared (FTIR) spectroscopy was used to characterize the functionalization. Pd substrates were also treated by UV- Ozone cleaner and H2 gas reduction (to remove PdO).
STM Measurements: Break junction measurements were carried out with a PicoSPM scanning probe microscope (Agilent Technologies). The Teflon liquid cells were cleaned in Piranha solution and then sonicated in Milli-Q water three times (Note that: the Piranha is highly corrosive and must be handled with extreme care). The current set point was 4 pA. Different sample bias was applied to the substrate as required. For better surface charge control, an Ag/AgCl with a salt bridge (10 mM KCl) was connected to the substrate. […]

[2] = system: cyclic RGD peptide; assay: Tunnel junction device functionalized with cyclic RGD peptide, gap 3.5 to 4 nm, current vs time; assay type: binding; details: for signal on flowing solution over junction: X=0.1 μm junction, 10 pM α4β1 for several minutes, then 10 fM αVβ3
Source text: FIG. 7 illustrates a cross-sectional view of a tunnel junction edge (i.e., the edge of an opening) of the device according to some embodiments of the present disclosure which includes a first metal electrode 71 (e.g., palladium, gold and/or platinum) onto which is deposited a layer of an insulating dielectric such as alumina 72 (for example). A second metal electrode 73 is then deposited, typically using one of the metals used for the first electrode. In some embodiments (not shown), the first electrode 71 and the second electrode 73 A cut is then made in the structure to expose the edge of these layers (fabrication of this type of device is described in detail in co-pending, published WO2015/161119, and also in Pang, Ashcroft et al. 2014) to form the opening/nanopore 78, shown here as a plane adjacent to the electrodes 71, 73. Accordingly, the first electrode 71 and the second electrode 73 can have an opening formed therethrough such as, for example, a nanopore. Said another way, the first electrode 71 and the second electrode 73 can be said to be arranged within or adjacent to an opening, or have a nanopore formed therethrough.
Specifically, for example, the insulating layer 72 is deposited with a thickness d that is chosen to be greater than the longest linear dimension of the recognition molecules 74 (L1, referred to as its effective length). However, according to some embodiments, it is chosen to be less than the combined overall length of the largest dimension of a target molecule 75 (L2, also referred to as its effective length) bound to the recognition molecule 74 (L1+L2). In the case of the integrin-RGD pair (FIGS. 3 and 4) the RGD molecule is about 1 nm at its longest, while the integrin is 9 nm, for a total of about 10 nm. […] However, a large particle that fluctuates into a highly conductive state could be used to mediate current flow (Vattay, Salahub et al. 2015). In some embodiments, the gap need only be made substantially larger than twice the largest dimension of the recognition molecules (i.e., >2L1). Thus, for example, if a recognition molecule is 1 nm at its longest dimension, then the gap is configured to be greater than 2 nm, preferably by about 10%, to accommodate variations in the junction geometry (larger than 2.2 nm in this example). In some embodiments, a gap size can be from the noted minimum up to the size of one recognition molecule plus the size of the target protein. For example, if the largest dimension of the protein is 9 nm, then the gap in this case can be as big 9 nm plus the size of one of the recognition molecules (1 nm in this example), thus, a gap of 10 nm.
However, when the junctions are exposed to the target protein (αvβ3 integrin) signals appear immediately. […] A clear signal is immediately generated which includes two (2) features as marked: a background current (of about 0.5 nA in this case) and noise spikes of 0.5 to 1 nA superimposed on top.

[3] = Bias 0.1 V, Reference Ag/AgCl (0V)
[4] = Bias 0.2 V, Reference Ag/AgCl (0V)
[5] = Bias 0.5 V, Reference Ag/AgCl (0V)
[6] = Bias 0.5 V, Reference None (substrate floating)
[7] = many current points, at distances Z0+ΔZ>3 nm

Substance	event frequency, of all retractions [1] [%]	fraction of events that overflowed the current limit of the amplifier (11 nA) [1, 3]	fraction of retractions that showed large current events [1, 3]	fraction of events that overflowed the current limit of the amplifier (11 nA) ([1]; Bias 0.1 V, Reference None)	fraction of retractions that showed large current events ([1]; Bias 0.1 V, Reference None)	fraction of events that overflowed the current limit of the amplifier (11 nA) [1, 4]	fraction of retractions that showed large current events [1, 4]	fraction of events that overflowed the current limit of the amplifier (11 nA) ([1]; Bias 0.2 V, Reference None)	fraction of retractions that showed large current events ([1]; Bias 0.2 V, Reference None)	fraction of events that overflowed the current limit of the amplifier (11 nA) [1, 5]	fraction of retractions that showed large current events [1, 5]	fraction of events that overflowed the current limit of the amplifier (11 nA) [1, 6]	fraction of retractions that showed large current events [1, 6]	conductance [1, 7] [nS]	peak current [1, 7]	background current ([2]; 1 pM in 1 mM phosphate buffer pH 7.0)	signal on flowing solution over junction [2]	change of background current ([2]; on increasing concentration to 10 pM)	background current ([2]; 10 pM and 100 pM solutions)
αvβ3: ~200 kD αVβ3 extracelluar domain of human integrin, target protein bound by cyclic RGD peptide	25	0	0.07	0	0.06	0.01	0.32	0.03	0.26	0.2	0.58	0.09	0.56	> 0.5	exceed 0.1 nA	about 0.5 nA	a large signal appeared after a few minutes	increases by nearly an order of magnitude	
α4β1: homologous, weakly-binding integrin protein used as a control	12		0.01		0	0	0.15	0	0.12	0.01	0.3	0	0.24				no signal being produced		no background current
